According to patent US20100292231A1, “Indazole Compounds for Treating Inflammatory Disorders, Demyelinating Disorders and Cancers” (priority 2007, published 2010):
Read-outs that look alike come from different tables or passages of the source.

Tests used:
Assay in all cases: SelectScreen kinase specificity survey
Type in all cases: biochemical
PLK1 = target: T1, PLK1 (Homo sapiens, UniProt P53350); details: estimated, abridged dose response curve, read-out: Kinase inhibitory activity EC50
T1 construct: purchased Invitrogen, Inc. (SelectScreen service)
Method in brief: (§1)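 ATP held at 100 micromolar; every kinase had its own substrate and optical reporter. The compound was dosed in 5 increments, and a 4-parameter Hill curve gave the EC50 estimate.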

PRKCZ (PKC zeta) = target: T2, PRKCZ (PKC zeta) (Homo sapiens, UniProt Q05513); details: estimated, abridged dose response curve, read-out: Kinase inhibitory activity EC50
T2 construct: purchased Invitrogen, Inc. (SelectScreen platform)
Method in brief: as §1

FER = target: T3, FER (Homo sapiens, UniProt P16591); details: estimated, abridged dose response curve, read-out: Kinase inhibitory activity EC50
T3 construct: purchased Invitrogen (SelectScreen service)
Method in brief: as §1

NTRK1 (TRKA) = target: T4, NTRK1 (TRKA) (Homo sapiens, UniProt P04629)
T4 construct: purchased Invitrogen (SelectScreen)
Method in brief: as §1

AMPK A1/B1/G1 = target: T5, AMPK A1/B1/G1 (Homo sapiens, UniProt P54619+Q13131+Q9Y478); details: estimated, abridged dose response curve, read-out: Kinase inhibitory activity EC50
T5 construct: purchased Invitrogen, Inc. (SelectScreen platform)
Method in brief: as §1

YES1 (YES) = target: T6, YES1 (YES) (Homo sapiens, UniProt P07947); details: estimated, abridged dose response curve, read-out: Kinase inhibitory activity EC50
T6 construct: purchased Invitrogen (SelectScreen)
Method in brief: as §1

CSNK1G3 (CK1 gamma 3) = target: T7, CSNK1G3 (CK1 gamma 3) (Homo sapiens, UniProt Q9Y6M4); details: estimated, abridged dose response curve, read-out: Kinase inhibitory activity EC50
T7 construct: purchased Invitrogen (SelectScreen platform)
Method in brief: as §1

PRKD1 (PKC mu, PKD1) = target: T8, PRKD1 (PKC mu, PKD1) (Homo sapiens, UniProt Q15139); details: estimated, abridged dose response curve, read-out: Kinase inhibitory activity EC50
T8 construct: purchased Invitrogen, Inc. (SelectScreen platform)
Method in brief: as §1

CSNK1E (CK1 epsilon) = target: T9, CSNK1E (CK1 epsilon) (Homo sapiens, UniProt P49674); details: estimated, abridged dose response curve, read-out: Kinase inhibitory activity EC50
T9 construct: purchased Invitrogen (SelectScreen platform)
Method in brief: as §1

GRK7 = target: T10, GRK7 (Homo sapiens, UniProt Q8WTQ7)
T10 construct: purchased Invitrogen (SelectScreen platform)
Method in brief: as §1

PRKX = target: T11, PRKX (Homo sapiens, UniProt P51817); details: estimated, abridged dose response curve, read-out: Kinase inhibitory activity EC50
T11 construct: purchased Invitrogen (SelectScreen platform)
Method in brief: as §1

NEK2 = target: T12, NEK2 (Homo sapiens, UniProt P51955); details: estimated, abridged dose response curve, read-out: Kinase inhibitory activity EC50
T12 construct: purchased Invitrogen, Inc. (SelectScreen service)
Method in brief: as §1

PRKCQ (PKC theta) = target: T13, PRKCQ (PKC theta) (Homo sapiens, UniProt Q04759); details: estimated, abridged dose response curve, read-out: Kinase inhibitory activity EC50
T13 construct: purchased Invitrogen, Inc. (SelectScreen platform)
Method in brief: as §1

CLK2 = target: T14, CLK2 (Homo sapiens, UniProt P49760); details: estimated, abridged dose response curve, read-out: Kinase inhibitory activity EC50
T14 construct: purchased Invitrogen (SelectScreen platform)
Method in brief: as §1

PRKG1 (PKG1) = target: T15, PRKG1 (PKG1) (Homo sapiens, UniProt Q13976); details: estimated, abridged dose response curve, read-out: Kinase inhibitory activity EC50
T15 construct: purchased Invitrogen, Inc. (SelectScreen platform)
Method in brief: as §1

MAPK9 (JNK2) = target: T16, MAPK9 (JNK2) (Homo sapiens, UniProt P45984); details: estimated, abridged dose response curve, read-out: Kinase inhibitory activity EC50
T16 construct: purchased Invitrogen, Inc. (SelectScreen service)
Method in brief: as §1

ABL1 Y253F = target: T17, ABL1 Y253F (Homo sapiens, UniProt P00519, Y253F); details: estimated, abridged dose response curve, read-out: Kinase inhibitory activity EC50
T17 construct: purchased Invitrogen (SelectScreen platform)
Method in brief: as §1

PRKCN (PKD3, PRKD3) = target: T18, PRKCN (PKD3, PRKD3) (Homo sapiens, UniProt O94806); details: estimated, abridged dose response curve, read-out: Kinase inhibitory activity EC50
T18 construct: purchased Invitrogen, Inc. (SelectScreen platform)
Method in brief: as §1

PAK3 = target: T19, PAK3 (Homo sapiens, UniProt O75914); details: estimated, abridged dose response curve, read-out: Kinase inhibitory activity EC50
T19 construct: purchased Invitrogen (SelectScreen platform)
Method in brief: as §1

CSNK1A1 (CK1 alpha 1) = target: T20, CSNK1A1 (CK1 alpha 1) (Homo sapiens, UniProt P48729); details: estimated, abridged dose response curve, read-out: Kinase inhibitory activity EC50
T20 construct: purchased Invitrogen (SelectScreen platform)
Method in brief: as §1

TAOK2 (TAO1) = target: T21, TAOK2 (TAO1) (Homo sapiens, UniProt Q9UL54); details: estimated, abridged dose response curve, read-out: Kinase inhibitory activity EC50
T21 construct: purchased Invitrogen (SelectScreen platform)
Method in brief: as §1

EGFR (ErbB1) L861Q = target: T22, EGFR (ErbB1) L861Q (Homo sapiens, UniProt P00533, L861Q); details: estimated, abridged dose response curve, read-out: Kinase inhibitory activity EC50
T22 construct: purchased Invitrogen (SelectScreen service)
Method in brief: as §1

CSNK2A1 (CK2 alpha 1) = target: T23, CSNK2A1 (CK2 alpha 1) (Homo sapiens, UniProt P68400); details: estimated, abridged dose response curve, read-out: Kinase inhibitory activity EC50
T23 construct: purchased Invitrogen, Inc. (SelectScreen service)
Method in brief: as §1

BMX = target: T24, BMX (Homo sapiens, UniProt P51813); details: estimated, abridged dose response curve, read-out: Kinase inhibitory activity EC50
T24 construct: purchased Invitrogen (SelectScreen)
Method in brief: as §1

AKT3 (PKB gamma) = target: T25, AKT3 (PKB gamma) (Homo sapiens, UniProt Q9Y243); details: estimated, abridged dose response curve, read-out: Kinase inhibitory activity EC50
T25 construct: purchased Invitrogen (SelectScreen platform)
Method in brief: as §1

RAF1 (cRAF) Y340D Y341D = target: T26, RAF1 (cRAF) Y340D Y341D (Homo sapiens, UniProt P04049, Y340D/Y341D); details: estimated, abridged dose response curve, read-out: Kinase inhibitory activity EC50
T26 construct: purchased Invitrogen, Inc. (SelectScreen platform)
Method in brief: as §1

T14 sequence (P49760 whole entry): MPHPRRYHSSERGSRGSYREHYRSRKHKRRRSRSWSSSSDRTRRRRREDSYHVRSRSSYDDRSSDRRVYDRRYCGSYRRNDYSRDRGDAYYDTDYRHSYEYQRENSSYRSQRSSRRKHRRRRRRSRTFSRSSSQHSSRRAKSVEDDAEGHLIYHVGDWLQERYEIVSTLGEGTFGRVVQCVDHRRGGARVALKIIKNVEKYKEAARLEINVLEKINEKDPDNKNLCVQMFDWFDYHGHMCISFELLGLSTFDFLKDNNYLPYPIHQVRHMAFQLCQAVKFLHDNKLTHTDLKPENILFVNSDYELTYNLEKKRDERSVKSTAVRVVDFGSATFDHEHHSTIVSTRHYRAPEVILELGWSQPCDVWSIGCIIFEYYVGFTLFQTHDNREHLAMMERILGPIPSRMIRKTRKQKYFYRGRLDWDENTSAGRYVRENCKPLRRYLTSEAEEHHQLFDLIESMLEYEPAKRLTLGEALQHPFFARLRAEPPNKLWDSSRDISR
T22 sequence (P00533 25-1210 L861Q): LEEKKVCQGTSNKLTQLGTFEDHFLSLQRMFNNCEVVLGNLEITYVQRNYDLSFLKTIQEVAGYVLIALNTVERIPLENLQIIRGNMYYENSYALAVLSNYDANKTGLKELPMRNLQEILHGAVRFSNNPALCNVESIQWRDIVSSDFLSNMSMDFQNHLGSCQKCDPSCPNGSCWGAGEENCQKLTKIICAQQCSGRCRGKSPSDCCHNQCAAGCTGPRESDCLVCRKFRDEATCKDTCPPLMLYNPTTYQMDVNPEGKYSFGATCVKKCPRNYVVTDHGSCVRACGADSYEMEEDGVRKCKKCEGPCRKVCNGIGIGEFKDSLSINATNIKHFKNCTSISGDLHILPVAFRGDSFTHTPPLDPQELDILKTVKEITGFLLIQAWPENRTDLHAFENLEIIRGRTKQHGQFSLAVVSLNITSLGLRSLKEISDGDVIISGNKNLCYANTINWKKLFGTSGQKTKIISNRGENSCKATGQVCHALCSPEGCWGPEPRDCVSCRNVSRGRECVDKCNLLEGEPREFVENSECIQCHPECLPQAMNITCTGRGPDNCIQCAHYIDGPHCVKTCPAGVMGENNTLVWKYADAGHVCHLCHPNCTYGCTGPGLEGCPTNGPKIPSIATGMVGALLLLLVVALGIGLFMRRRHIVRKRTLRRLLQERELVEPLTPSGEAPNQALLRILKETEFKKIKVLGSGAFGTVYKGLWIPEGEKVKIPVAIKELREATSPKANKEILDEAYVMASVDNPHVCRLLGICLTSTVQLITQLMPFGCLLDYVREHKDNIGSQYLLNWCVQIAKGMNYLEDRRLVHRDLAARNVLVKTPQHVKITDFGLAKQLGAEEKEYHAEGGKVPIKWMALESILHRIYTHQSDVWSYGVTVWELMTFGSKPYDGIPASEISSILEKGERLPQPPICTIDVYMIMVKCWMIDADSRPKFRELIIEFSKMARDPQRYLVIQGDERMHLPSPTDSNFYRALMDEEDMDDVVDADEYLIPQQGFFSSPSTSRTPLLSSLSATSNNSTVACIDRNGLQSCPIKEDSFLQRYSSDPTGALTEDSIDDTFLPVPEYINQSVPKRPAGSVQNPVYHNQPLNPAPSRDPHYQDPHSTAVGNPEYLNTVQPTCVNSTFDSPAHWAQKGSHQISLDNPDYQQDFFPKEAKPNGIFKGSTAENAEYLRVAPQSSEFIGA
T15 sequence (Q13976 whole entry): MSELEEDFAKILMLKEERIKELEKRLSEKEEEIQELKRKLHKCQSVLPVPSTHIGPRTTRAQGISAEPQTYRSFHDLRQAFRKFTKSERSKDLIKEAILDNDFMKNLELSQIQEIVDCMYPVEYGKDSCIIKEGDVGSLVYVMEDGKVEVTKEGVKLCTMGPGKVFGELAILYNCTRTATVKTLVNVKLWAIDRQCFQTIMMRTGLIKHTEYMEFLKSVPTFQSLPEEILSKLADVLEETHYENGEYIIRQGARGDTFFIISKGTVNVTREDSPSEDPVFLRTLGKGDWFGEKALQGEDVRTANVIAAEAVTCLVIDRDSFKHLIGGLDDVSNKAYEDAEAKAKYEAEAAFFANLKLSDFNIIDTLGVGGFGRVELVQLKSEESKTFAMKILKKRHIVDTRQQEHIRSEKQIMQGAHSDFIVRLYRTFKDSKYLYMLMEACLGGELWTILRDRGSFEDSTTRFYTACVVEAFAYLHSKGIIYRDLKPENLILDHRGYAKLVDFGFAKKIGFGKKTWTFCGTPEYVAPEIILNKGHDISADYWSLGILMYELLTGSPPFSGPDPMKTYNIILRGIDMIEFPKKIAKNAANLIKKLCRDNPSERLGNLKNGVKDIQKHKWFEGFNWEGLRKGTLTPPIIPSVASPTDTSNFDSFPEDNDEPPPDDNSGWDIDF
T3 sequence (P16591 whole entry): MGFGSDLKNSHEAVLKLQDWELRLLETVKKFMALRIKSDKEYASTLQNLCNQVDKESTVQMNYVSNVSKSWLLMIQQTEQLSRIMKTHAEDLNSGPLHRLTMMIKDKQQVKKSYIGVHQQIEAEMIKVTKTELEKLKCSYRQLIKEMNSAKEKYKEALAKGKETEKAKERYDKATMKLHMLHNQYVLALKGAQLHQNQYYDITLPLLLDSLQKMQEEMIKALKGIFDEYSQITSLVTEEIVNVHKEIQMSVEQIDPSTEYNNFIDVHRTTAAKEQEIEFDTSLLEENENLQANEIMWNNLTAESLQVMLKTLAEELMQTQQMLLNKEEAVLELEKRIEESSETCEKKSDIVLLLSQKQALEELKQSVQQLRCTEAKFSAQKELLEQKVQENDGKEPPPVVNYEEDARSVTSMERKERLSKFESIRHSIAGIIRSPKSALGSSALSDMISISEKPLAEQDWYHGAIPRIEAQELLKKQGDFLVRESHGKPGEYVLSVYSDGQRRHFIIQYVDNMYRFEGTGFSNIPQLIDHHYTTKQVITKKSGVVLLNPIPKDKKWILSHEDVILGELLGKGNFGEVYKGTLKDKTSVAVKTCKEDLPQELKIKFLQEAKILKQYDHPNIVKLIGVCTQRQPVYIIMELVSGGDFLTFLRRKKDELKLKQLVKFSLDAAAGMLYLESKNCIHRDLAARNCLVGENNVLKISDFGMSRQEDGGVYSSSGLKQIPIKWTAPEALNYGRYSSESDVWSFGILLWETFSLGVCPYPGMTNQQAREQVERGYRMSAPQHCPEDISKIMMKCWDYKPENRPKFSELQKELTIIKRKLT
T5 sequence (Q13131 whole entry): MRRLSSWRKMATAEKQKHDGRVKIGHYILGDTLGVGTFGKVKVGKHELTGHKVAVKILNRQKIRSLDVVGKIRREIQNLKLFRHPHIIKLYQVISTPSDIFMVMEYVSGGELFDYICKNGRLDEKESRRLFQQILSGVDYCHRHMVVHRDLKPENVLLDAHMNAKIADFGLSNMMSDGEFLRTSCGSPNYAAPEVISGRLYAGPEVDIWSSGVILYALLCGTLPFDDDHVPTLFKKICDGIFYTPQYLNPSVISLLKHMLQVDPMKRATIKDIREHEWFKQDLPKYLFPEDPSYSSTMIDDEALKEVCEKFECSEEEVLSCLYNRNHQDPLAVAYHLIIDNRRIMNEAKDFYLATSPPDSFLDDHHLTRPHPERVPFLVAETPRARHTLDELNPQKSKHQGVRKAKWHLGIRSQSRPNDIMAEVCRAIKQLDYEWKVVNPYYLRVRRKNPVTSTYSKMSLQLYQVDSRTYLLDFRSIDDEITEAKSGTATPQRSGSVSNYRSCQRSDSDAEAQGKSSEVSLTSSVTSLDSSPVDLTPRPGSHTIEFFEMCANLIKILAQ
T5 sequence (Q9Y478 whole entry partner): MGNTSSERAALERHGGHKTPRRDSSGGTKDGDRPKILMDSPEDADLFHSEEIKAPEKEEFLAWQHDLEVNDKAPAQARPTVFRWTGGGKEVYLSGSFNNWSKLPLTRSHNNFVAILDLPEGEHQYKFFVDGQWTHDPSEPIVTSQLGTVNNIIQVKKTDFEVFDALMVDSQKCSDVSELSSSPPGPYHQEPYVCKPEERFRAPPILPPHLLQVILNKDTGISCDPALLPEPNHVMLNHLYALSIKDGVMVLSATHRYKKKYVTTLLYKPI
T5 sequence (P54619 whole entry partner): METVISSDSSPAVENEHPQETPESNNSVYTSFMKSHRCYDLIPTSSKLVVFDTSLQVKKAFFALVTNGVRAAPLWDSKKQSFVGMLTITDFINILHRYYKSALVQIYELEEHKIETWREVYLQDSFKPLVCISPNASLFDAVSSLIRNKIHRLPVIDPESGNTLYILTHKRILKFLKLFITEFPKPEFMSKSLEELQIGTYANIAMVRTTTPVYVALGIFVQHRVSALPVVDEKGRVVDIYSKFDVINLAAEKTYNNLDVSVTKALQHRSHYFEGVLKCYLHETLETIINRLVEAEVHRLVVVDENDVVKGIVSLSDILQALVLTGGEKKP
T9 sequence (P49674 whole entry): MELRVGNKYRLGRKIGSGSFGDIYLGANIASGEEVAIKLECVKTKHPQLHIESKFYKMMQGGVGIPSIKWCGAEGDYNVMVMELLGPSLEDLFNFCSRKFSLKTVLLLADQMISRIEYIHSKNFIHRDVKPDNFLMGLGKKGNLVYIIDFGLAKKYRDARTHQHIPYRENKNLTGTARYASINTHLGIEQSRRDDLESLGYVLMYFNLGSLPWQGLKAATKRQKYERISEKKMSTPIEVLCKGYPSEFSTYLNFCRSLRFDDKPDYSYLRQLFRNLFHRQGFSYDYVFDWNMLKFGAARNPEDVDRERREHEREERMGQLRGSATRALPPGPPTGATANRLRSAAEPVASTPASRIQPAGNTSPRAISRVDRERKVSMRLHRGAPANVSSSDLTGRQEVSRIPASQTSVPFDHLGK

SMILES	EC50 (PLK1)	EC50 (PRKCZ (PKC zeta))	EC50 (FER)	EC50 (AMPK A1/B1/G1)	EC50 (YES1 (YES))	EC50 (CSNK1G3 (CK1 gamma 3))	EC50 (PRKD1 (PKC mu, PKD1))	EC50 (CSNK1E (CK1 epsilon))	EC50 (PRKX)	EC50 (NEK2)	EC50 (PRKCQ (PKC theta))	EC50 (CLK2)	EC50 (PRKG1 (PKG1))	EC50 (MAPK9 (JNK2))	EC50 (ABL1 Y253F)	EC50 (PRKCN (PKD3, PRKD3))	EC50 (PAK3)	EC50 (CSNK1A1 (CK1 alpha 1))	EC50 (TAOK2 (TAO1))	EC50 (EGFR (ErbB1) L861Q)	further results
CCN(CC)CCNc1ccc2ncn3c4ccc(O)cc4c(=O)c1c23 [Symadex, 5-(2-(diethylamino)ethylamino)-8-hydroxy-6H-imidazo[4,5,1-de]acridin-6-one, reference compound]	> 5 µM	> 5 µM	> 5 µM	3.48 µM	> 5 µM	> 5 µM	0.217 µM	1.09 µM	3.56 µM	> 5 µM	> 5 µM	0.315 µM	> 5 µM	> 5 µM	4.49 µM	0.221 µM	> 5 µM	3.48 µM	> 5 µM	> 5 µM	EC50 (NTRK1 (TRKA)): 1.43 µM; EC50 (GRK7): > 5 µM; EC50 (CSNK2A1 (CK2 alpha 1)): > 5 µM; EC50 (BMX): > 5 µM; EC50 (AKT3 (PKB gamma)): > 5 µM; EC50 (RAF1 (cRAF) Y340D Y341D): > 5 µM
CN(C)CCCNc1ccc2ncn3c4ccc5[nH]ncc5c4c(=O)c1c23 [Compound (IV)]	> 5 µM	> 5 µM	> 5 µM	> 5 µM	1.57 µM	> 5 µM	0.494 µM	> 5 µM	1.4 µM	> 5 µM	> 5 µM	0.055 µM	> 5 µM	> 5 µM	2.52 µM	0.302 µM	> 5 µM	> 5 µM	> 5 µM	> 5 µM	EC50 (NTRK1 (TRKA); NTRK1 (TRKA), estimated, abridged dose response curve, read-out: Kinase inhibitory activity EC50): 0.438 µM; EC50 (GRK7; GRK7, estimated, abridged dose response curve, read-out: Kinase inhibitory activity EC50): > 5 µM; EC50 (CSNK2A1 (CK2 alpha 1)): > 5 µM; EC50 (BMX): 3.23 µM; EC50 (AKT3 (PKB gamma)): > 5 µM; EC50 (RAF1 (cRAF) Y340D Y341D): > 5 µM
